The term MIC denotes the smallest concentration in the dilution series that meets the test's criterion for growth inhibition. The low end stands for a more susceptible organism, the high end for a less susceptible organism.

One data set relates to E. coli ATCC 25922. It is filed as cell-based, Escherichia coli. An excerpt: (§1) All 81 compounds prepared in Examples 2 and 3 underwent screening against a panel of Gram-negative bacterium to assess their ability to inhibit bacterial growth. […] The median value is presented.
For data set [1], the system named is colistin-resistant E. coli. The format is cell-based, Escherichia coli. An excerpt:
(§2) Given the promising antimicrobial activity and low toxicity associated with compounds 29, 35 and to a lesser extent 38, these compounds were progressed to a further round of phenotypic antimicrobial susceptibility testing using a panel of clinically relevant multidrug resistant Gram-negative pathogens. This panel included isolates phenotypically characterised as carbapenem-resistant Enterobacteriacea (CRE), extended spectrum β-lactamase (ESBL) producing Enterobacteriacea, colistin-resistant E. coli, carbapenem-resistant Acinetobacter baumannii (CRAB) or carbapenem-resistant Pseudomonas aeruginosa (CRPA). These isolates were chosen because each was resistant to multiple different families of clinically used antibiotics making treatment options limited and importantly, each of these pathogen types are recognised as “Priority 1: CRITICAL” on the World Health Organization (WHO) priority pathogen list for R&D of new antibiotics. Antimicrobial activity against any of these pathogens would therefore be of clinical importance. […] However, we note that many of the compounds tested in Example 4 did show good activity against colistin-resistant E. coli.

Data set [2] relates to kidney organoids derived from human induced pluripotent stem cells. Kind of data set: Nephrotoxicity on kidney organoids, renal tubule deterioration by bright field imaging. Further: key: 1 = unaffected; 2 = mild deterioration; 3 = severe deterioration; 4 = complete deterioration. It is filed as cell-based. Conditions: scored after 48 h. As to the method: Selected polymyxin analogues were evaluated for cytotoxicity in physiologically relevant human kidney tissue, using kidney organoids derived from human induced pluripotent stem cells (Soo et al. 2018). Monolipidated analogues 29, 31, 33, containing a propyl, decyl or phenyl lipid, dilapidated compounds, 35, 38, 39, containing a propyl, tert-butyl or phenyl, lipid, respectively and the N-capped, di-lipidated (phenyl) 49 were selected.
The control compound polymyxin B and the seven ClipPA analogues were tested by adding a range of concentrations (based on Gallado-Godoy et al. 2016) to the organoids at day 12 of the protocol, shown previously to correspond to optimal maturity of the organoid tissues.
Toxicity was scored after 48 h for signs of renal tubule deterioration visible by bright field imaging (not shown).

The next data set has as its system P. aeruginosa ATCC 27853. It is filed as cell-based, Pseudomonas aeruginosa.
From the text: as §1

The next data set deals with HaCaT cell line. Kind of data set: Cellular toxicity against HaCaT cell line. It is filed as cell-based. As for the experimental part:
(§3) FIG. 6 is a graph showing cell survival as a function of the indicated compound concentration. Data are representative of triplicate experiments.
(§4) To evaluate if the ClipPA modifications introduced any new toxicity, inhibitory concentrations against Vero and HaCaT cell lines were determined. […] The standard error for each measurement is shown.

The test system of the next data set is Vero cell line. Kind of data set: Cellular toxicity against Vero cell line. The format is cell-based. As to the method: as §3, §4
Data set [3] concerns extended spectrum β-lactamase (ESBL) producing Enterobacteriacea. The format is cell-based.
From the text: as §2

Data set [4] concerns carbapenem-resistant Acinetobacter baumannii (CRAB). It is filed as cell-based.
From the text: as §2

For data set [5], the system named is carbapenem-resistant Pseudomonas aeruginosa (CRPA). The format is cell-based.
From the text: as §2

In data set [6] the test system is carbapenem-resistant Enterobacteriacea (CRE). The format is cell-based.
From the text: as §2

The next data set deals with A. baumannii ATCC 19606. The format is cell-based, Acinetobacter baumannii.
From the text: as §1

Data set [7] relates to K. pneumoniae ATCC 700603. The format is cell-based, Klebsiella pneumoniae.
From the text: as §1

For data set [8], the system named is K. pneumoniae ATCC MS6671. The format is cell-based, Klebsiella pneumoniae.
From the text: as §1

In another data set the test system is K. pneumoniae ATCC 33495. It is filed as cell-based, Klebsiella pneumoniae.
From the text: as §1

Another data set relates to E. coli ATCC MS8345. The format is cell-based, Escherichia coli.
From the text: as §1
Expansion of the polymyxin macrocycle by substituting […]) offered little advantage in antimicrobial activity but was generally well tolerated although for A. baumanni and P. aeruginosa this was detrimental.

Converted amounts (≈) assume the structure as drawn. Where two headings read alike, the source gives them in different places. Positions of bridges follow the written chain, without caps; N, C: chain ends. Non-standard residues stand in square brackets, D forms with d. Residues, ends and D or L forms follow the SMILES beside them. *: point of attachment. Ethyl(2-propionyloxy) = CCC(=O)OCC*; Dab = NCC[C@H](N)C(=O)O

Polymyxin B [PMB, reference compound]: the “MIC E. coli ATCC 25922” value against E. coli ATCC 25922 (median of triplicate) was determined as 0.25 µg/mL. Also, the MIC amounted to 8 µg/mL in data set [1] (E. coli, CR (colistin-resistant), MCR-1); 1 µg/mL in data set [3] (E. coli, CTX-M-15); 2 µg/mL in [3] (S. enterica, CTX-M-55); 1 µg/mL in [4] (A. baumannii, CRAB, OXA-23); 8 µg/mL in [5] (P. aeruginosa, CRPA, VIM-2); 1 µg/mL in data set [6] (E. cloacae, IMP-4). The MIC in data set [6] (E. coli, NDM-1) is 1 µg/mL; in data set [6] (K. pneumoniae, KPC-2), 2 µg/mL; in data set [6] (K. pneumoniae, NDM-5), 2 µg/mL. For the same compound, the “susceptibility of colistin-resistant E. coli in words” value in [1] (in words) is recorded as “resistant”. Besides, the “Score (nephrotoxicity on kidney organoids)” value stood at 2 in data set [2] (100 μM), 3 in data set [2] (300 μM) and 4 in [2] (1 mM). For the same compound, the “MIC P. aeruginosa ATCC 27853” value with P. aeruginosa ATCC 27853 (median of triplicate) was 0.25 µg/mL. Further, in the data set on HaCaT cell line (HaCaT cell line, ± standard error), the “IC50 HaCaT” value was 1998 ± 27.74 µg/mL. The “IC50 Vero” value in the data set with Vero cell line (Vero cell line, ± standard error) was 939.0 ± 63.32 µg/mL. Moreover, the “susceptibility of CRPA in words” value in [5] (in words) is recorded as “resistant”. In addition, the “MIC A. baumannii ATCC 19606” value against A. baumannii ATCC 19606 (median of triplicate) was determined as 0.5 µg/mL. Further, the “MIC K. pneumoniae ATCC 700603” value in [7] (median of triplicate) stood at 0.25 µg/mL. Moreover, in [8] (median of triplicate), the “MIC K. pneumoniae ATCC MS6671” value is greater than 32 µg/mL. The “MIC K. pneumoniae ATCC 33495” value with K. pneumoniae ATCC 33495 (median of triplicate) was determined as 0.5 µg/mL. Besides, the “MIC E. coli ATCC MS8345” value in the data set with E. coli ATCC MS8345 (colistin-resistant strain, median of triplicate) is 4 µg/mL.

Turning to `CCC(=O)OCCSC[C@H](N)C(=O)N[C@@H](CCN)C(=O)N[C@H](C(=O)N[C@@H](CCN)C(=O)N[C@H]1CCNC(=O)[C@H]([C@@H](C)O)NC(=O)[C@H](CCN)NC(=O)[C@H](CCN)NC(=O)[C@H](CC(C)C)NC(=O)[C@@H](Cc2ccccc2)NC(=O)[C@H](CCN)NC1=O)[C@@H](C)O` [Compound 29] (H-C(Ethyl(2-propionyloxy))[Dab]T[Dab][Dab][Dab][dF]L[Dab][Dab]T; lactam 5-C), the “MIC E. coli ATCC 25922” value in the data set with E. coli ATCC 25922 (ATCC 25922) was 2 µg/mL (≈ 1.58 µM). Also, the MIC in data set [1] (colistin-resistant) is greater than 32 µg/mL; in [4] (carbapenem-resistant (CRAB)), 4 µg/mL (≈ 3.16 µM); in [5] (carbapenem-resistant (CRPA)), greater than 32 µg/mL; in data set [6] (E. cloacae, IMP-4), 2 µg/mL (≈ 1.58 µM); in [6] (E. coli, NDM-1), 2 µg/mL (≈ 1.58 µM); in [6] (K. pneumoniae, KPC-2), 2 µg/mL (≈ 1.58 µM). In data set [6] (K. pneumoniae, NDM-5), this compound yielded an MIC of 2 µg/mL (≈ 1.58 µM). Besides, the “MIC P. aeruginosa ATCC 27853” value in the data set on P. aeruginosa ATCC 27853 (ATCC 27853) was determined as 2 µg/mL (≈ 1.58 µM). For the same compound, in the data set on HaCaT cell line, the “IC50 HaCaT” value was 2534 ± 169.2 µg/mL (≈ 2000 µM). Further, the “amount required to cause inhibition” value in the data set with HaCaT cell line and with Vero cell line was greater than 500 µg/mL throughout. For the same compound, in the data set on HaCaT cell line, the “inhibitory effects against HaCaT compared with Colistin or Polymyxin B” value is on record as “comparable”. For the same compound, in the data set with Vero cell line, the “IC50 Vero” value worked out at 2422 ± 38.98 µg/mL (≈ 1910 µM). Besides, in the data set on Vero cell line, the “fold less toxic towards Vero than Colistin or Polymyxin B” value is on record as roughly 2.5 fold. Also, the “MIC A. baumannii ATCC 19606” value in the data set on A. baumannii ATCC 19606 (ATCC 19606) is 2 µg/mL (≈ 1.58 µM). Also, the “MIC K. pneumoniae ATCC 700603” value in [7] (ATCC 700603) is 0.5 µg/mL (≈ 0.395 µM). Besides, the “MIC K. pneumoniae ATCC MS6671” value in [8] (ATCC MS6671) was greater than 32 µg/mL. Besides, the “MIC K. pneumoniae ATCC 33495” value in the data set with K. pneumoniae ATCC 33495 (ATCC 33495) came out at 0.125 µg/mL (≈ 0.0987 µM). Also, in the data set with E. coli ATCC MS8345 (ATCC MS8345), the “MIC E. coli ATCC MS8345” value is 32 µg/mL (≈ 25.3 µM).

(Values after patent publication US20250282827A1, “LIPIDATED POLYMYXIN ANALOGUES” (priority 2021, published 2025).)
